# Assay results published in BindingDB's records for PubMed 6292197 (Kyoto University, 1982).
# Biological target: T1, Prostaglandin D2 receptor (Rattus norvegicus, UniProt Q9R261)
# T1 sequence (Q9R261 whole entry): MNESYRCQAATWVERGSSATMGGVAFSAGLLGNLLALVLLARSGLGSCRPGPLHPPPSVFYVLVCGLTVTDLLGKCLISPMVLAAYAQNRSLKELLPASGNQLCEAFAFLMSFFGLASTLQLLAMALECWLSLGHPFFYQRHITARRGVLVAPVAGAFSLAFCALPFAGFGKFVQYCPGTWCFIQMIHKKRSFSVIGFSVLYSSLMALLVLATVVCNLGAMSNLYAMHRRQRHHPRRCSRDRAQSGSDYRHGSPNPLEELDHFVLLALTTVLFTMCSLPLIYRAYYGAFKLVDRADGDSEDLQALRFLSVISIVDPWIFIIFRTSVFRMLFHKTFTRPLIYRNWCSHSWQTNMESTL
row,Structure (SMILES),Ki [µM]
1,CCCCC[C@@H](O)/C=C/[C@H]1[C@H](O)CC(=O)[C@@H]1CCCCCCC(=O)O,3.76
2,CCCCC[C@H](O)/C=C/[C@@H]1[C@@H](CC(=O)CCCCC(=O)O)[C@@H](O)C[C@H]1O [6-KETO-PROSTAGLANDIN F1ALPHA],> 10
3,"CCCCC[C@H](O)C=C[C@H]1C=CC(=O)[C@@H]1C/C=C\CCCC(=O)O [(Z)-7-[(1R,5S)-2-oxidanylidene-5-[(E,3S)-3-oxidanyloct-1-enyl]cyclopent-3-en-1-yl]hept-5-enoic acid]",> 10
4,CCCCCC(O)C=CC1=C(CC=CCCCC(=O)O)C(=O)CC1 (stereo unspecified) [NSC_5280881],> 10
5,CCCCCC(O)C=CC1C(O)CC2OC(=CCCCC(=O)O)CC21 (stereo unspecified) [NSC_5282411],3.54
6,CCCCC[C@H](O)/C=C/[C@H]1OC(O)C[C@H](O)[C@@H]1C/C=C\CCCC(=O)O (stereo partly specified) [THROMBOXANE B2],4.2

# These reach a lower Ki. Values come first.
row,Ki [µM],Structure (SMILES)
1,0.693,"CCCCC[C@H](O)/C=C/C1[C@H](O)C[C@H](O)[C@@H]1C/C=C\CCCC(=O)O (stereo partly drawn) [(Z)-7-[(1R,3R,5S)-3,5-Dihydroxy-2-((E)-(S)-3-hydroxy-oct-1-enyl)-cyclopentyl]-hept-5-enoic acid]"
2,0.019,CCCCCC(O)CC=C1C(=O)C=CC1CC=CCCCC(=O)O (stereo unspecified) [CAS_41598-07-6]
3,0.027,CCCCCC(O)C=CC1C(=O)CC(O)C1CC=CCCCC(=O)OC (stereo unspecified) [CAS_114676]
4,2.95,CCCCC[C@H](O)/C=C/[C@H]1[C@H](O)CC(=O)[C@@H]1C/C=C\CCCC(=O)O [DINOPROSTONE]
5,0.523,CCCCCC(O)C=CC1C(=O)CC(O)C1CCCCCCC(=O)O (stereo unspecified) [NSC_205449]
